Measured values reported in ChEMBL document CHEMBL3217754, “Nitro-based inhibitors against thermolysin” (Medchemcomm, 2011).

target: T1, Thermolysin (Bacillus thermoproteolyticus, UniProt P00800); assay: Competitive inhibition of Bacillus thermoproteolyticus thermolysin using N-[3-(2-furyl)acryloyl]Gly-L-Leu-NH2 as substrate by Dixon plot analysis
T1 sequence (P00800 whole entry): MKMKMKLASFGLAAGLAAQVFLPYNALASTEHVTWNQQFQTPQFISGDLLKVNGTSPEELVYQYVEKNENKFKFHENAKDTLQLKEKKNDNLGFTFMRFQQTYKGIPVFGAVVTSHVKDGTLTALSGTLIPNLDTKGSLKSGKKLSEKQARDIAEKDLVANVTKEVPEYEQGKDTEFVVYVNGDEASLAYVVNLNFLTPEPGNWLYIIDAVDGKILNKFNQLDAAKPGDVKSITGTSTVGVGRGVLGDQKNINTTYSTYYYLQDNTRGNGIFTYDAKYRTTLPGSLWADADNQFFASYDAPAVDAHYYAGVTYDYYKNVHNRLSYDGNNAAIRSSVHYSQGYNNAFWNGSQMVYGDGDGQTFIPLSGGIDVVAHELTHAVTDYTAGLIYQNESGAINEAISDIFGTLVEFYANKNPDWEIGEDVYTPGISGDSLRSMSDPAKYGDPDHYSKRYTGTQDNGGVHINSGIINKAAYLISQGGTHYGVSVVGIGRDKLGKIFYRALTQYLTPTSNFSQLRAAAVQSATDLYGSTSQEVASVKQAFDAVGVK

| SMILES | Ki [nM] |
| --- | --- |
| COC(=O)[C@H](CC(C)C)NC(=O)[C@@H](Cc1ccccc1)C[N+](=O)[O-] | 2400 |
| NC(=O)C(Cc1ccccc1)C[N+](=O)[O-] (racemic) | 36000 |
| COC(=O)[C@H](CC(C)C)NC(=O)[C@H](CC(C)C)C[N+](=O)[O-] | 83 |
| NC(=O)[C@@H](Cc1ccccc1)C[N+](=O)[O-] | 663000 |
| COC(=O)[C@H](Cc1ccccc1)NC(=O)[C@H](CC(C)C)C[N+](=O)[O-] | 840 |
| COC(=O)[C@H](CC(C)C)NC(=O)[C@H](Cc1ccccc1)C[N+](=O)[O-] | 370 |
| COC(=O)[C@H](CC(C)C)NC(=O)[C@@H](CC(C)C)C[N+](=O)[O-] | 770 |
| NC(=O)[C@H](Cc1ccccc1)C[N+](=O)[O-] | 7600 |

The next lines start with the values.

| Ki [nM] | SMILES |
| --- | --- |
| 86000 | COC(=O)[C@@H](Cc1ccccc1)NC(=O)[C@@H](Cc1ccccc1)C[N+](=O)[O-] |
| 79000 | COC(=O)[C@H](Cc1ccccc1)NC(=O)[C@@H](Cc1ccccc1)C[N+](=O)[O-] |
| 1400 | COC(=O)[C@@H](Cc1ccccc1)NC(=O)[C@H](Cc1ccccc1)C[N+](=O)[O-] |
| 950 | COC(=O)[C@H](Cc1ccccc1)NC(=O)[C@H](Cc1ccccc1)C[N+](=O)[O-] |
| 7200 | COC(=O)[C@H](Cc1ccccc1)NC(=O)[C@@H](CC(C)C)C[N+](=O)[O-] |
